Laboratory results published in patent publication US20260242440A1, “NOVEL MEANS TO MODULATE NMDA RECEPTOR-MEDIATED TOXICITY” (FUNDAMENTAL PHARMA GMBH, priority 2018, published 2026).

What was measured:
[1] = tested on: primary mouse hippocampal neurons; test: NMDA induced cell death (excitotoxicity) in cultured primary neurons; format: cell-based; conditions: 30 min pre-treatment with 10 μM compound; NMDA 20 μM for 10 min or 24 hours; cell death 24 hours after challenge
[2] = tested on: primary mouse hippocampal neurons; test: as above; format: cell-based; conditions: polypeptide expressed via rAAV infection on DIV3; NMDA 20 μM for 10 min; cell death assessed 24 h later

| Compound | NMDA receptor induced cell death (transient and chronic NMDA toxicity) [1] | protection against NMDA induced cell death (neuroprotective effect) [2] |
| --- | --- | --- |
| CCN(CCN)Cc1cccc(Br)c1 [P4] | neuroprotective effect |  |
| SEQ ID NO:5: polypeptide, amino acid residues 633-689 of mouse TRPM4 (NSEERAARLLLRRCPLWGEATCLQLAMQADARAFFAQDGVQSLLTQKWWGEMDSTTP; listed as Mus musculus) |  | neuroprotective |
